From patent publication US20250064990A1, “METHODS OF SCREENING FOR VMAT2 INHIBITORS” (Neurocrine Biosciences, Inc., priority 2021, published 2025)
Read-outs that look alike come from different tables or passages of the source.

Target: VMAT2 (Macaca fascicularis, UniProt A0A2K5UVB8)
Assay: VMAT2 occupancy in NHP brain after i.v. NBI-750142, [^18F]AV-133 PET
Type: in vivo, cynomolgus monkeys (Macaca fascicularis)
Conditions: for receptor occupancy at 0.084 mg/kg / receptor occupancy at 0.52 mg/kg / receptor occupancy at 0.026 mg/kg / receptor occupancy at 0.26 mg/kg / receptor occupancy at 0.78 mg/kg: cynomolgus monkey
Description: The aim of this study was to assess the relationship between NBI-750142 dose/plasma concentration and VMAT2 occupancy with [^18F]AV-133 using PET in non-human primate (NIP) brain. A radioligand, [^18F]AV-133, has been used to image and quantify brain VMAT2 in vivo.
Three non-naïve cynomolgus monkeys (Macaca fascicularis) were used in this study. The animals were judged to be in good health before the start of the study. At study origination the animals were 7 (female, EC865), 8 (male, GC786) and 9 (female, LC206) years old and weighed 4.2, 7.0, and 5.4 kg, respectively.
The animals were imaged with [^18F]AV-133 at baseline with vehicle (0.9% saline) and post NBI-750142 blockade on separate days. Vehicle and NBI-750142 were administered as an intravenous (i.v.) bolus followed by a constant infusion over 3 hours. [^18F]AV-133 was injected as an i.v. bolus, 1 h after administration of vehicle/NBI-750142. The design study is summarized below Table 2-1.
Dynamic data were acquired in the MicroPET Focus-220 camera (Siemens Microsystems, Knoxville, TN). Emission data were collected for 120 min post-injection and reconstructed into a series of 33 frames and all standard corrections were applied: normalization, random, scatter and attenuation. Dynamic brain PET images were transferred and analyzed using the image processing PMOD software package v3.802 (PMOD Technologies, Zurich, Switzerland). The PET images were rigidly aligned to a previously acquired animal's brain T1 MRI and then spatially normalized to a common cynomolgus MRI template for anatomical brain region definition.
Volumes of interest (VOIs) defined in the cynomolgus template space (see e.g., Ballanger et al. Neuroimage, 2013, 7:26-43) were applied to the spatially normalized PET images to compute time-activity curves (TACs, kBq/cm^3) for caudate (0.96 cm^3), putamen (1.34 cm^3) and cerebellum (3.81 cm^3). TACs and images (averaged between 60-120 min) were presented in Standard Uptake Value (SUV) units (g/mL) normalized by the weight of the animal and the injected dose.
Non-invasive Logan graphical analysis (start time of fit, t*=35 min) was used to estimate regional non-displaceable binding potential (BPND) using the TACs in the caudate and putamen, with the cerebellar cortex as the reference TAC. BPND was calculated in the in the caudate and putamen across baseline and NBI-750142 scans. Target occupancy was calculated according to Equation 1-1.
where h is the Hill slope (h=1.0) and C is the mean of observed plasma concentrations during the scanning interval (60 to 180 minutes post-dose).

Chain of VMAT2 (A0A2K5UVB8 entry or part of it): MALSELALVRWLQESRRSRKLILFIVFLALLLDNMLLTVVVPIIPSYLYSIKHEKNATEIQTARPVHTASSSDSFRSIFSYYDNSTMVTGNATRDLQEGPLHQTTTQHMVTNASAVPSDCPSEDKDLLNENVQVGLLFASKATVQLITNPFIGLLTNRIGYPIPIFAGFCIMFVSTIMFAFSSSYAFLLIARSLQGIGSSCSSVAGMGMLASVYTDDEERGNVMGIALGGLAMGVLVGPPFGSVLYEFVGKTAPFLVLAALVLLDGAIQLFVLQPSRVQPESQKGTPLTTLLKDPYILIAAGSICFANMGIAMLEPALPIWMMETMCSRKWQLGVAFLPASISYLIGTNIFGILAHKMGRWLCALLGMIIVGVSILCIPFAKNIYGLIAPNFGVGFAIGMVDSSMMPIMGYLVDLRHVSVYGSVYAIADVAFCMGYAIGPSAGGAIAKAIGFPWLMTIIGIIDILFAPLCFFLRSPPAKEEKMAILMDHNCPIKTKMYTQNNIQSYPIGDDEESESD

Question: What does the source list for `COc1cc2c(cc1OC)[C@H]1CN(C)[C@H](CC(C)(C)C)CN1CC2` [NBI-750142]?
Answer: [^18F]AV-133 BPND (animal EC865, Caudate, NBI-750142 0.084 mg/kg): 2.39; [^18F]AV-133 BPND (animal EC865, Caudate, NBI-750142 0.52 mg/kg): 1.01; [^18F]AV-133 BPND (animal EC865, Putamen, NBI-750142 0.084 mg/kg): 3.10; [^18F]AV-133 BPND (animal EC865, Putamen, NBI-750142 0.52 mg/kg): 1.18; [^18F]AV-133 BPND (animal GC786, Caudate, NBI-750142 0.026 mg/kg): 3.10; [^18F]AV-133 BPND (animal GC786, Caudate, NBI-750142 0.26 mg/kg): 2.22; [^18F]AV-133 BPND (animal GC786, Caudate, NBI-750142 0.78 mg/kg): 0.33; [^18F]AV-133 BPND (animal GC786, Putamen, NBI-750142 0.026 mg/kg): 3.53; [^18F]AV-133 BPND (animal GC786, Putamen, NBI-750142 0.26 mg/kg): 2.39; [^18F]AV-133 BPND (animal GC786, Putamen, NBI-750142 0.78 mg/kg): 0.43; [^18F]AV-133 BPND (animal LC206, Caudate, NBI-750142 0.26 mg/kg): 1.42; [^18F]AV-133 BPND (animal LC206, Putamen, NBI-750142 0.26 mg/kg): 1.61; [^18F]AV-133 binding post administration of NBI-750142 (caudate and putamen vs baseline): dose-dependent decrease; receptor occupancy at 0.084 mg/kg (iv, read-out: % Occ, animal EC865, Caudate, 0.084 mg/kg): 38.7%; receptor occupancy at 0.52 mg/kg (iv, read-out: % Occ, animal EC865, Caudate, 0.52 mg/kg): 74.2%; receptor occupancy at 0.084 mg/kg (iv, read-out: % Occ, animal EC865, Putamen, 0.084 mg/kg): 40.9%; receptor occupancy at 0.52 mg/kg (iv, read-out: % Occ, animal EC865, Putamen, 0.52 mg/kg): 77.5%; receptor occupancy at 0.026 mg/kg (iv, read-out: % Occ, animal GC786, Caudate, 0.026 mg/kg): 31.1%; receptor occupancy at 0.26 mg/kg (iv, read-out: % Occ, animal GC786, Caudate, 0.26 mg/kg): 50.8%; receptor occupancy at 0.78 mg/kg (iv, read-out: % Occ, animal GC786, Caudate, 0.78 mg/kg): 92.7%; receptor occupancy at 0.026 mg/kg (iv, read-out: % Occ, animal GC786, Putamen, 0.026 mg/kg): 25.8%; receptor occupancy at 0.26 mg/kg (iv, read-out: % Occ, animal GC786, Putamen, 0.26 mg/kg): 49.7%; receptor occupancy at 0.78 mg/kg (iv, read-out: % Occ, animal GC786, Putamen, 0.78 mg/kg): 90.9%; receptor occupancy at 0.26 mg/kg (iv, read-out: % Occ, animal LC206, Caudate, 0.26 mg/kg): 64.5%; receptor occupancy at 0.26 mg/kg (iv, read-out: % Occ, animal LC206, Putamen, 0.26 mg/kg): 63.7%; receptor occupancy at 0.084 mg/kg (read-out: Target Occupancy, Mean of Putamen and Caudate, EC865, 0.084 mg/kg): 40%; receptor occupancy at 0.52 mg/kg (read-out: Target Occupancy, Mean of Putamen and Caudate, EC865, 0.52 mg/kg): 76%; receptor occupancy at 0.026 mg/kg (read-out: Target Occupancy, Mean of Putamen and Caudate, GC786, 0.026 mg/kg): 28%; receptor occupancy at 0.26 mg/kg (read-out: Target Occupancy, Mean of Putamen and Caudate, GC786, 0.26 mg/kg): 50%; receptor occupancy at 0.78 mg/kg (read-out: Target Occupancy, Mean of Putamen and Caudate, GC786, 0.78 mg/kg): 92%; receptor occupancy at 0.26 mg/kg (read-out: Target Occupancy, Mean of Putamen and Caudate, LC206, 0.26 mg/kg): 64%; 50% effective total concentration (EC50) of plasma NBI-750142 for VMAT2 occupancy (striatum, Emax model, Hill slope 1, cynomolgus monkey PET): 0.011 µg/mL
